One assay addresses T1, Monoamineoxidase B type human-derived enzyme (Homo sapiens, UniProt P27338).
T1 sequence (P27338 1-520): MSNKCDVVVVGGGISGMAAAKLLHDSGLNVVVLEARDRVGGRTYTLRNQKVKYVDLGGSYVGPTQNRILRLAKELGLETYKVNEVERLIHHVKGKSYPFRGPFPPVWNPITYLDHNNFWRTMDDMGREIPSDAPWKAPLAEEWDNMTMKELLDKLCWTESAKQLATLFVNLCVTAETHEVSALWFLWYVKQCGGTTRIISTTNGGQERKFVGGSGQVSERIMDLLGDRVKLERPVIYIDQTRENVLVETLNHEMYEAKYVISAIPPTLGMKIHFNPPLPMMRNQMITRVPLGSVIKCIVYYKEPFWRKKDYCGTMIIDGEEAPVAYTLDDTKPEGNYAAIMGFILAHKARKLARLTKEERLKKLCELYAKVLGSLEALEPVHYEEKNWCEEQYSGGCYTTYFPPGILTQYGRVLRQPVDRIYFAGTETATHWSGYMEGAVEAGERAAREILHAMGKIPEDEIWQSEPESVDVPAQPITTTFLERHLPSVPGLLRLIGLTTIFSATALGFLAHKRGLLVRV
The assay can be described thus: Inhibitory effects on the activity of MAO-B (Amplex Red fluorescence, benzylamine substrate). The class given is biochemical. The note with it: read-out: Inhibitory effects (%) on the activity of MAO-B. As to the method:
Monoamineoxidase A or B type human-derived enzyme (5 mg/ml) was each diluted with 0.05 M sodium phosphate buffer (pH 7.4) to yield a dilution of 1:200, and then 100 μl of an enzyme buffer containing 2 μl of a compound 1 solution at the corresponding concentration was placed in a test plate (flat-bottom) and incubated for 30 minutes.
100 μl of a working buffer containing 400 μM of Amplex Red reagent, 2 U/ml horseradish peroxidase, and 2 mM substrate (tyramine for MAO-A and benzylamine for MAO-B) in 0.05 M sodium phosphate buffer (pH 7.4) was mixed with a pre-incubated enzyme buffer at 1:1 and measured using fluorescence (EX: 563 nm & EM: 587 nm) for 30 minutes.
On to `CCCCCOc1ccc(-c2cc(COC(N)=O)on2)cc1` [Example 44, carbamic acid 3-(4-pentoxy-phenyl)-isoxazol-5-ylmethyl ester], for which the inhibition at 0.01 µM is 74.3%.

For the molecule `NC(=O)OCc1nc(-c2ccc(OCc3ccccc3)cc2)ns1` [Example 4, carbamic acid 3-(4-benzyloxy-phenyl)-[1,2,4]thiadiazol-5-ylmethyl ester], the inhibition at 0.01 µM was 92%.

The assay is the same for the next values; noted with them: treatment concentration 10 nM.
In the case of “3-[4-(4-methyl-benzyloxy)-phenyl]-isoxazol-5-ylmethyl ester [Example 28]”, the “Inhibitory effects (%) on the activity of MAO-B” value was determined as 87.4%.

As to `CC(C)(C)[N+]([O-])=Cc1cccc(COc2ccc(-c3cc(COC(N)=O)on3)cc2)c1` [Example 204, carbamic acid 3-{4-[3-(t-butylnitronyl)-benzyloxy]-phenyl}-isoxazol-5-ylmethyl ester], the “Inhibitory effects (%) on the activity of MAO-B” value was found to be 98.8%.

The same assay, now with this note: treatment concentration 10 nM; read-out: Inhibitory effects (%) on the activity of MAO-B.
With `NC(=O)CNCc1cc(-c2ccc(OCc3ccccc3)cc2)no1` [Example 162, 2-{[3-(4-benzyloxy-phenyl)-isoxazol-5-ylmethyl]-amino}-acetamide], the inhibition at 0.01 µM was found to be 66.1%.

Regarding `CCN(CC)Cc1cc(-c2ccc(OCc3ccccc3)cc2)no1` [Example 151, [3-(4-benzyloxy-phenyl)-isoxazol-5-ylmethyl]-diethyl-amine], the inhibition at 0.01 µM stood at 96.8%.

In the case of `NC(=O)OCc1cc(-c2ccc(NCc3cccc(F)c3)cc2)no1` [Example 77, Carbamic acid 3-[4-(3-fluoro-benzylamino)-phenyl]-isoxazol-5-ylmethyl ester], the inhibition at 0.01 µM amounted to 77.1%. Still for that read-out and setting: next, `NC(=O)OCc1cc(-c2ccc(OCc3c(F)cccc3Cl)cc2)no1` [Example 199, Carbamic acid 3-[4-(2-chloro-6-fluorobenzyloxy)-phenyl]-isoxazol-5-ylmethyl ester]: 83.2%; `NC(=O)OCc1cc(-c2ccc(OCc3cc(F)cc(F)c3)cc2)no1` [Example 16, carbamic acid 3-[4-(3,5-difluoro-benzyloxy)-phenyl]-isoxazol-5-ylmethyl ester]: 96.5%. Same read-out and setting: next, `CC(Oc1ccc(-c2cc(COC(N)=O)on2)cc1)c1ccccc1` (centres unmarked) [Example 10, carbamic acid 3-[4-(1-phenyl-ethoxy)-phenyl]-isoxazol-5-ylmethyl ester]: 98.2%; `NC(=O)OCc1cc(-c2ccc(NCc3cc(F)cc(F)c3)cc2)no1` [Example 82, Carbamic acid 3-[4-(3,5-difluoro-benzylamino)-phenyl]-isoxazol-5-ylmethyl ester]: 56.5%; `CCc1nc(C)cn1Cc1cc(-c2ccc(OCc3ccccc3)cc2)no1` [Example 186, 3-(4-benzyloxy-phenyl)-5-(2-ethyl-4-methyl-imidazol-1-ylmethyl)-isoxazole]: 51.2%. The same measure, in the same setting: next, `NC(=O)OCc1cc(-c2ccc(OCc3cccc(F)c3F)cc2)no1` [Example 15, carbamic acid 3-[4-(2,3-difluoro-benzyloxy)-phenyl]-isoxazol-5-ylmethyl ester]: 96.2%; `COC(=O)c1ccc(COc2ccc(-c3cc(COC(N)=O)on3)cc2)cc1` [Example 27, 4-[4-(5-carbamoyloxymethyl-isoxazol-3-yl)-phenoxymethyl]-benzoic acid methyl ester]: 75.2%. On to `NC(=O)OCc1cc(-c2ccc(OCc3ccc(F)c(F)c3)cc2)no1` [Example 17, carbamic acid 3-[4-(3,4-difluoro-benzyloxy)-phenyl]-isoxazol-5-ylmethyl ester], for which the inhibition at 0.01 µM turned out to be 96.8%. For `Fc1ccc(COc2ccc(-c3cc(Cn4ccnc4)on3)cc2)c(F)c1` [Example 154, 3-[4-(2,4-difluoro-benzyloxy)-phenyl]-5-imidazol-1-ylmethyl-isoxazole], the inhibition at 0.01 µM was determined as 82.7%. The same measure, in the same setting: next, `NC(=O)OCc1cc(-c2ccc(NCc3cc(F)ccc3F)cc2)no1` [Example 83, Carbamic acid 3-[4-(2,5-difluoro-benzylamino)-phenyl]-isoxazol-5-ylmethyl ester]: 54.9%. Same read-out and setting: next, `NC(=O)OCc1cc(-c2ccc(OCc3ccccc3)c(F)c2)no1` [Example 8, carbamic acid 3-(4-benzyloxy-3-fluoro-phenyl)-isoxazol-5-ylmethyl ester]: 72.7%. On the same count and under the same terms, the same measure for `c1ccc(COc2ccc(-c3cc(Cn4cncn4)on3)cc2)cc1` [Example 144, 1-[3-(4-benzyloxy-phenyl)-isoxazol-5-ylmethyl]-1H-[1,2,4]triazole]: 97.3%; for `NC(=O)OCc1cc(-c2ccc(OCc3cc(F)ccc3Cl)cc2)no1` [Example 25, carbamic acid 3-[4-(2-chloro-5-fluoro-benzyloxy)-phenyl]-isoxazol-5-ylmethyl ester]: 83.2%. Regarding `Clc1ccc(COc2ccc(-c3cc(Cn4ccnc4)on3)cc2)cc1` [Example 157, 3-[4-(4-chloro-benzyloxy)-phenyl]-5-imidazol-1-ylmethyl-isoxazole], the inhibition at 0.01 µM is 37.2%. The same measure, in the same setting: the same measure for `CC(OC(N)=O)c1cc(-c2ccc(OCc3ccccc3)cc2)no1` (centres unmarked) [Example 117, carbamic acid 1-[3-(4-benzyloxy-phenyl)-isoxazol-5-yl]-ethyl ester]: 68.5%. On to `NC(=O)OCc1cc(-c2ccc(NCc3ccc(Cl)cc3Cl)cc2)no1` [Example 89, carbamic acid 3-[4-(2,4-dichloro-benzylamino)-phenyl]-isoxazol-5-ylmethyl ester], for which the inhibition at 0.01 µM was found to be 54.7%. As to `Fc1cc(F)c(COc2ccc(-c3cc(Cn4ccnc4)on3)cc2)c(F)c1` [Example 155, 5-imidazol-1-ylmethyl-3-[4-(2,4,6-trifluoro-benzyloxy)-phenyl]-isoxazole], the inhibition at 0.01 µM worked out at 70.7%. Still for that read-out and setting: the same measure for `NC(=O)OCc1cc(-c2ccc(OCc3nc4ccccc4s3)cc2)no1` [Example 64, Carbamic acid 3-[4-(benzothiazol-2-ylmethoxy)-phenyl]-isoxazol-5-ylmethyl ester]: 32.8%; for `NC(=O)OCc1cc(-c2ccc(OCc3ccc(F)cc3)cc2)no1` [Example 13, carbamic acid 3-[4-(4-fluoro-benzyloxy)-phenyl]-isoxazol-5-ylmethyl ester]: 102%; for `NC(=O)OCCNCc1cc(-c2ccc(OCc3ccccc3)cc2)no1` [Example 177, Carbamic acid 2-{[3-(4-benzyloxy-phenyl)-isoxazol-5-ylmethyl]-amino}-ethyl ester]: 31.7%.

Take `CN(C)Cc1cc(-c2ccc(OCc3ccccc3)cc2)no1` [Example 150, [3-(4-benzyloxy-phenyl)-isoxazol-5-ylmethyl]-dimethyl-amine]: the inhibition at 0.01 µM is 97.4%. Still for that read-out and setting: next, `NC(=O)OCc1cc(-c2ccc(OCc3ccc(Cl)cc3)cc2)no1` [Example 22, carbamic acid 3-[4-(4-chloro-benzyloxy)-phenyl]-isoxazol-5-ylmethyl ester]: 86%; `NC(=O)OCc1cc(-c2ccc(OCc3ccccc3)c(Cl)c2)no1` [Example 7, carbamic acid 3-(4-benzyloxy-3-chloro-phenyl)-isoxazol-5-ylmethyl ester]: 75.9%.

The test system of a further assay is dopamine (DA) in the striatum of a MPTP-treated mouse. The assay can be described thus: Combined administration with Levodopa group: dopamine in the striatum of MPTP-treated mouse (HPLC). The class given is in vivo. The note with it: compound 1 mg/kg PO co-administered with Levodopa group (Levodopa 50 mg/kg + Benzerazide 25 mg/kg IP); 1 hr after Levodopa. As to the method: MPTP (20 mg/kg, free base; Sigma, St. louis, Mo.) was administered to an 8 week old (20-25 g) male C57BL/6 test mouse intraperitoneally at the interval of 2 hours to construct a model.
In order to observe the effects of combined administration of a compound of the present invention and Levodopa, the compound of the present invention was dissolved in a solution containing 0.02 ml of dimethylsulfoxide (DMSO), 0.02 ml of Cremophor, 0.08 ml of polyethyleneglycol (PEG), and 0.08 ml of physiological saline. The resulting solution was orally administered at doses of 1 mg/kg one week after the MPTP treatment, and a Levodopa group containing Levodopa at 50 mg/kg and Benzerazide at 25 mg/kg was intraperitoneally administered 1 hour later.
A single administration of the Levodopa group in the following Table 4 indicates values resulting from a MPTP (toxin) treatment followed by an administration of the Levodopa group compared to the treatment results of a Levodopa single administration group of Levodopa and Benzerazide.
At 1 hour and 3 hours after administration of Levodopa, the animals were sacrificed by cervical vertebra dislocation and the brain tissues were immediately isolated from the animals. 0.5 me of iced solution for HPLC analysis (0.1 M perchloric acid and 0.1 mM EDTA) was added to a striatum obtained from the isolated brain tissues, and an ultrasonic grinder was used to prepare a tissue homogenate. The tissue homogenate was centrifuged at 12,000 rpm for 15 minutes, and its supernatant was filtered through nitrocellulose membrane filter (0.2 um, Millipore). For HPLC analysis, uBondapak™ C18 column (4.6×150 mm, particle size 10 μm: Shisheido, Japan) was used, the flow rate of the mobile phase (0.07 M monobasic sodium phosphate, 1 mM sodium octasulfonic acid, 0.1 uM EDTA, 5% acetonitrile, pH 3.2) was maintained at 0.5 me/min, and the electrode potential of the electrochemical detector (CouloChem III, ESA, Japan) was set at 350 mV.
With `NC(=O)CNCc1cc(-c2ccc(OCc3ccccc3)cc2)no1` [Example 162, 2-{[3-(4-benzyloxy-phenyl)-isoxazol-5-ylmethyl]-amino}-acetamide], the “Concentration of dopamine compared to a control group %, 1 hr” value came out at 148.3%.

Still in this assay, the particulars now being: compound 1 mg/kg PO co-administered with Levodopa group (Levodopa 50 mg/kg + Benzerazide 25 mg/kg IP); 3 hr after Levodopa.
As for `NC(=O)CNCc1cc(-c2ccc(OCc3ccccc3)cc2)no1` [Example 162, 2-{[3-(4-benzyloxy-phenyl)-isoxazol-5-ylmethyl]-amino}-acetamide], the “Concentration of dopamine compared to a control group %, 3 hr” value is 100.1%.
